In the test the test system is patients with documented CAD. The test can be described thus: Plasma LDL levels in CAD patients on simvastatin therapy. Type of test: in vivo, human. The following applies: simvastatin 40 mg/day, after 4 months on therapy, 13 CAD patients, data not shown. From the text:
For all studies, patients were recruited and screened for coronary artery disease (CAD) according to the following criteria.
Study Population: Human subjects with active vascular disease were recruited for this aspect of the study. They were screened by a history and physical exam, measurements of lipid profile and routine blood chemistries to include for example, CBC, TSH, free T4, ALT, AST, CPK, CRP, BUN, creatinine, glucose, hemoglobin A1c (if diabetic), urinalysis for protein and glucose. First preference was given to subjects with coronary artery disease. Exclusions included the use of lipid lowering or high dose angiotensin II—altering (or blocking) drugs within three months of the study. For the purposes of the following example, because of the limitations in finding subjects with coronary artery disease that are not on lipid lowering drugs or other vascular active drugs, subjects were also accepted with high coronary disease risk ratings as determined by Framingham Risk Assessment including both hard and soft risk predictors. […]
All lipid, lipoprotein, and apolipoprotein measurements were performed in the Emory Lipid Research Laboratory, a participant in the NHLBI/CDC Lipid Standardization Program. MDA proteins were measured in the Emory Lipid Research Laboratory using a commercially available kit. […]

Consider `CCC(C)(C)C(=O)O[C@H]1C[C@@H](C)C=C2C=C[C@H](C)[C@H](CC[C@@H]3C[C@@H](O)CC(=O)O3)[C@H]21` [simvastatin], for which the “LDL levels reduced by an average of” value is reported as 32.1%.

The values are drawn from US7749711B2, “Methods of assessing endothelial dysfunction using acute transient responses following fat administration” (priority 2003, dated 2010).
